Measurements: ChEMBL document CHEMBL1201862, “PubChem BioAssay data set” (2004)
Calls of active or inactive are those of the source.

What was measured:
[1] = target: T1, Probable nicotinate-nucleotide adenylyltransferase (Staphylococcus aureus (strain N315), UniProt P65502); assay type: functional, Staphylococcus aureus subsp. aureus N315;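 for IC50 Mean: confirmatory dose-response retesting of NadD inhibitor hits first found in an ultra-high-throughput screen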
[2] = target: T2, Streptokinase A (Streptococcus pyogenes serotype M1, UniProt P10520); assay: S. pyogenes streptokinase expression inhibitors, potency, dose response, plasminogen activation absorbance, OD405 (AID 1914); assay type: functional, Streptococcus pyogenes M1 GAS;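 note: secreted streptokinase activity via plasminogen activation per viability signal from cell pellet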
T2 sequence (P10520 whole entry): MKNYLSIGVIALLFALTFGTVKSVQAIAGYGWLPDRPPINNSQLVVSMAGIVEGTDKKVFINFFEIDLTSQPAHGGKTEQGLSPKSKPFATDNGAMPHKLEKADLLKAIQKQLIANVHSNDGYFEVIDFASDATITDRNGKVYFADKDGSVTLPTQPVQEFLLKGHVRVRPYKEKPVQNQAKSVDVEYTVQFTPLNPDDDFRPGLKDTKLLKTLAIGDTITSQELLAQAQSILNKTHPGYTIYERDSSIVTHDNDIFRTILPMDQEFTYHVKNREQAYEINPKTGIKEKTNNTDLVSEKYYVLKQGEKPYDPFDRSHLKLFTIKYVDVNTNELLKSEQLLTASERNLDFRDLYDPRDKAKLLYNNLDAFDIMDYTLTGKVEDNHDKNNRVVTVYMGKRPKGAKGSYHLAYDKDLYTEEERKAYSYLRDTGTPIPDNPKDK

[3] = Luminescence Cell-Based Dose Retest to Confirm Inhibitors of Cancer Stem Cells. [Related pubchem assays (depositor defined):AID2717, AID2721]; assay type: functional; conditions: Homo sapiens
[4] = tested on: Streptococcus; assay: Group A Streptococcus viability loss, dose response, counter-screen for streptokinase expression inhibitor project, luminescence, BacTiterGlo (AID 1915); assay type: functional, organism-based;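 note: potency for reduction of bacterial viability or growth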
[5] = target: T1, Probable nicotinate-nucleotide adenylyltransferase; assay type: functional, Staphylococcus aureus subsp. aureus N315; conditions: read-out: IC50_Mean
[6] = enhancers of respiration in Yfh1-depleted yeast, dose response, Friedreich's ataxia, plus single-dose screen (AID 1465); assay type: functional;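 note: yeast depleted of Yfh1p frataxin homolog grown on glycerol needing respiration; WST-1 tetrazolium dye reduction as measure of cellular dehydrogenase metabolic activity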
[7] = tested on: Streptococcus sp. 'group A'; assay: growth inhibition of control SK(-) GAS strain, dose response, counter-screen for streptokinase expression inhibitor project, luminescence, kanamycin, BacTiterGlo, confirmation (AID 1900); assay type: functional, organism-based
[8] = cytotoxicity toward NIH3T3 fibroblasts, dose response, counter-screen, cell-based, ATP luminescence, mouse fibroblasts (AID 2010); assay type: functional;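 note: cells exposed to compound for about 90 hours before reading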
[9] = target: T3, Zinc finger protein mex-5 (Caenorhabditis elegans, UniProt Q9XUB2); assay: MEX-5/TCR-2 RNA interaction inhibitors, dose response, biochemical, C. elegans, fluorescence polarization (AID 1960)
T3 sequence (Q9XUB2 whole entry): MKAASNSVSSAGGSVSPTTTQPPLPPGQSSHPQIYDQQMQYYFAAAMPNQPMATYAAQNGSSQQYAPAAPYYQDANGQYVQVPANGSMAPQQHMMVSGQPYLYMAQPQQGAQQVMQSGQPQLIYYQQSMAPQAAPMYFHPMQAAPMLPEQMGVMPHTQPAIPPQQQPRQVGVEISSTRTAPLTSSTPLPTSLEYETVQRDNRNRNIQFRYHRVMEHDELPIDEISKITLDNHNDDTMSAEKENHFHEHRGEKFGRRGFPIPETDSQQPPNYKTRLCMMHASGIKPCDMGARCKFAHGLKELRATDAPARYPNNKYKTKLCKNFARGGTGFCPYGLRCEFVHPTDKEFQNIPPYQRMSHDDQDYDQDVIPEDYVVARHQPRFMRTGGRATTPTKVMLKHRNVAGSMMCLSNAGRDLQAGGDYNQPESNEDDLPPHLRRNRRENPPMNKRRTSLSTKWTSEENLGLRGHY

[10] = target: Mothers against decapentaplegic homolog 3 (Homo sapiens, UniProt P84022); assay: SMAD3 transcription factor inhibitors, dose response (AID 715); assay type: functional
[11] = inhibitors of intracellular T. cruzi replication, confirmation, NIH3T3 host cells, beta-gal luminescence (AID 2044); assay type: functional, cell-based;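 note: intracellular parasites grown in NIH/3T3 mouse fibroblasts as host cells; luminescent beta-galactosidase reporter signal from transgenic T. cruzi replicating inside host cells; inhibitors lower the luminescence signal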
[12] = target: T4, RNA-binding protein pos-1 (Caenorhabditis elegans, UniProt G5EF15); assay: inhibitors of POS-1/mex-3 RNA binding, dose response, biochemical, fluorescence polarization (AID 1964);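 note: purified POS-1 fused to maltose binding protein made in E. coli; potency of compounds blocking POS-1 binding to fluorescent RNA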
T4 sequence (G5EF15 whole entry): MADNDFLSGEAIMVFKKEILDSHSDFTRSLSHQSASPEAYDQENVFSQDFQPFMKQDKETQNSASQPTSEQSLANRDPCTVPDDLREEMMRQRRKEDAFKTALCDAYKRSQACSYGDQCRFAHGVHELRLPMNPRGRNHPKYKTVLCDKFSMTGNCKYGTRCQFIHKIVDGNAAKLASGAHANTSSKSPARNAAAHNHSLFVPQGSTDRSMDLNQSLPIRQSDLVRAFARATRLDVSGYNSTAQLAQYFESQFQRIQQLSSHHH

[13] = target: T5, Rac GTPase-activating protein 1 (Homo sapiens, UniProt Q9H0H5); assay: MgcRacGAP GTPase-activating activity inhibitors, confirmation, biochemical, ADP Hunter fluorescence, primary and confirmatory (AID 624330); assay type: functional
T5 sequence (Q9H0H5 whole entry): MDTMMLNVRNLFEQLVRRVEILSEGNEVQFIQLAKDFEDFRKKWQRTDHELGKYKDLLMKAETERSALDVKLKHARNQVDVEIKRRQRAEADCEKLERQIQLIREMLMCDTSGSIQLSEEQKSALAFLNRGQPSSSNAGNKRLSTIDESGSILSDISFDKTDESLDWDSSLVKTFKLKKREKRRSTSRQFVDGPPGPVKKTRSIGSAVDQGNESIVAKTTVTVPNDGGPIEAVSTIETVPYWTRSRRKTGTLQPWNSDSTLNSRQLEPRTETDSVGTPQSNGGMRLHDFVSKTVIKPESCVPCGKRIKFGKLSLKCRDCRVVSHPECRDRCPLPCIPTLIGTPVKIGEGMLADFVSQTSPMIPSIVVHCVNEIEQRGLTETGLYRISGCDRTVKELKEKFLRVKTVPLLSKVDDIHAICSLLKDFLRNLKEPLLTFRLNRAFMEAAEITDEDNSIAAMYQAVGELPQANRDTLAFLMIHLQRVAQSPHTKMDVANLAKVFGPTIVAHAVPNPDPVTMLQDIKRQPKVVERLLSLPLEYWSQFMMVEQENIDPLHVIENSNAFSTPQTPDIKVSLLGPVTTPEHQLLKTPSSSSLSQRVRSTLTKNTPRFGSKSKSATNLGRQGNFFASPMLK

[14] = tested on: HeLa; assay: Cytotoxicity counterscreen assay for transcriptional activators of heat shock protein 70 (Hsp70). [Related pubchem assays: 1203, 1252 ]; assay type: functional; conditions: Homo sapiens;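 note: cells exposed to compound for 16 hours before readout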
[15] = target: T6, Estrogen receptor (Homo sapiens, UniProt P03372); assay: ERα–SRC-3 coactivator interaction inhibitors, confirmation, orthogonal assay, biochemical, ELISA, streptavidin-HRP readout (AID 1079)
T6 sequence (P03372 whole entry): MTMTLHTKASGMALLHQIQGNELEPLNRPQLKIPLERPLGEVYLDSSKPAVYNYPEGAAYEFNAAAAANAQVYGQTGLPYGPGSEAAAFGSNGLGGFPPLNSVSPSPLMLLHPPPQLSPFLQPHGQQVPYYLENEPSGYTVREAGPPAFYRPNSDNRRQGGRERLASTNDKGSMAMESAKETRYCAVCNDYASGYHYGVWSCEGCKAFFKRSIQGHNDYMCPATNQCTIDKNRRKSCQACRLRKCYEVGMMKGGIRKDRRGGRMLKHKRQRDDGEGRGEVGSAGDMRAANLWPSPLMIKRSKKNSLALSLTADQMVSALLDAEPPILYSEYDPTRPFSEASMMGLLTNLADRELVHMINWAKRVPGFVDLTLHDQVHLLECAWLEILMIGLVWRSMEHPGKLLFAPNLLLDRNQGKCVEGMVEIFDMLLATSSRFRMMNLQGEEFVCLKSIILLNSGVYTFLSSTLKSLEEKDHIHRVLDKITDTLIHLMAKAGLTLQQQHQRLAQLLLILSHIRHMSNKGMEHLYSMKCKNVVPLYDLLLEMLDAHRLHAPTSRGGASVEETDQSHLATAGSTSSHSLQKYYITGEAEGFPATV

[16] = target: Ion channel NompC (Danio rerio, UniProt Q7T1G6); assay: Fluorescence counterscreen assay for TRPML3 agonists: dose response cell-based high-throughput screening assay to identify agonists of the transient receptor potential channel N1 (TRPN1). [Related pubchem assays: 1526, 1424, 1448 ]; assay type: functional
[17] = target: Mucolipin-3 (Homo sapiens, UniProt Q8TDD5); assay: Dose response cell-based high-throughput screening assay for agonists of the transient receptor potential channel ML3 (TRPML3). [Related pubchem assays: 1526, 1424, 1448 ]; assay type: functional
[18] = target: Peroxisome proliferator-activated receptor gamma/Nuclear receptor coactivator 3 (Homo sapiens, UniProt P37231); assay type: functional;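 note: agonist potency for raising coactivator recruitment to the receptor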
[19] = target: Peroxisome proliferator-activated receptor gamma/Nuclear receptor coactivator 1 (Homo sapiens, UniProt P37231); assay type: functional;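 note: agonist potency as compounds enhance coactivator SRC-1 recruitment to PPARgamma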
[20] = target: Peroxisome proliferator-activated receptor gamma/Nuclear receptor coactivator 2 (Homo sapiens, UniProt P37231); assay type: functional;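 note: agonist potency for raising coactivator recruitment to the receptor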
[21] = inhibitors of Bluetongue virus cytopathic effect, confirmation, arbovirus, BSR cells (AID 1250); assay type: functional;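 note: protection from viral cytopathic effect measured as cell viability by ATP luminescence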
[22] = target: T7, Aminopeptidase N (Plasmodium falciparum FcB1/Columbia, UniProt O96935); assay: P. falciparum M1AAP inhibitors, biochemical, fluorogenic H-Leu-NHMec substrate, 1536-well (AID 1445); set-up: species or system Plasmodium falciparum 3D7, 3D7
T7 sequence (O96935 whole entry): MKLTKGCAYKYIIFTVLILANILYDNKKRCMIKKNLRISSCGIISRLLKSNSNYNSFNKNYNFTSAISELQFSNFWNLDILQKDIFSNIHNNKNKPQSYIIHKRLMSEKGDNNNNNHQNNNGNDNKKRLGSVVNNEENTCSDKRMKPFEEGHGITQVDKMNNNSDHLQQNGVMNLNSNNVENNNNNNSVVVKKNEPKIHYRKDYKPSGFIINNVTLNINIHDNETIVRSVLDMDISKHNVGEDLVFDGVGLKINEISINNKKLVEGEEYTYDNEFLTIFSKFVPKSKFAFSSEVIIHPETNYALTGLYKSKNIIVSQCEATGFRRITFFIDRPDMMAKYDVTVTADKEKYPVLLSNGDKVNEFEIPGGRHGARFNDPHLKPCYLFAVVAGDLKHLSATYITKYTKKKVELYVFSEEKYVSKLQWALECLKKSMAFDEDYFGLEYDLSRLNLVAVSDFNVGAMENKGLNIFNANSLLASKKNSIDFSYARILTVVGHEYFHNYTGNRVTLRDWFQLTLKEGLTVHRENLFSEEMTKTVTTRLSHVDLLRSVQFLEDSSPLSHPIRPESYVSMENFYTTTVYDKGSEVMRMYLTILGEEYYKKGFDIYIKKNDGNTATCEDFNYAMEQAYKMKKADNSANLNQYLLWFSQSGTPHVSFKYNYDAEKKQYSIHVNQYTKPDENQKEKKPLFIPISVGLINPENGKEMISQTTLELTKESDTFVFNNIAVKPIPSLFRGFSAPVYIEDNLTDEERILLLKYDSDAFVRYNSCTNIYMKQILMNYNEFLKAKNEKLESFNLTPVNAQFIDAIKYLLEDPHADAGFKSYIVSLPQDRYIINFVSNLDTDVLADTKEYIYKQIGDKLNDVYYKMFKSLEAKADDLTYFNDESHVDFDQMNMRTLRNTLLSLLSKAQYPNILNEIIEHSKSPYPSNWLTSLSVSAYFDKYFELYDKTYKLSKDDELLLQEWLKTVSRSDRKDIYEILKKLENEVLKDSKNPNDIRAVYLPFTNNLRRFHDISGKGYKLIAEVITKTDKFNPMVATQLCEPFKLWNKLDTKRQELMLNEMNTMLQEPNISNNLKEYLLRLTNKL

[23] = HIV-1 Env-mediated cell fusion inhibitors, dose response, CCR5-tropic Env (AID 2279); assay type: functional
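Throughout, for AC50: cells exposed to compound for roughly 70 hours or longer before luminescence read.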

T1 sequence (P65502 whole entry): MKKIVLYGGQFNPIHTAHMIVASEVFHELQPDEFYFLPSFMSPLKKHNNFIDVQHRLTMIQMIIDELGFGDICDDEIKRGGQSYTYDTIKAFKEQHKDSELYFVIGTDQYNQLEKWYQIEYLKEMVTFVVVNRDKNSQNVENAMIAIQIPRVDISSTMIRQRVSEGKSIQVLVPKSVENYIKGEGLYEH
Ion channel NompC, sequence (Q7T1G6 whole entry): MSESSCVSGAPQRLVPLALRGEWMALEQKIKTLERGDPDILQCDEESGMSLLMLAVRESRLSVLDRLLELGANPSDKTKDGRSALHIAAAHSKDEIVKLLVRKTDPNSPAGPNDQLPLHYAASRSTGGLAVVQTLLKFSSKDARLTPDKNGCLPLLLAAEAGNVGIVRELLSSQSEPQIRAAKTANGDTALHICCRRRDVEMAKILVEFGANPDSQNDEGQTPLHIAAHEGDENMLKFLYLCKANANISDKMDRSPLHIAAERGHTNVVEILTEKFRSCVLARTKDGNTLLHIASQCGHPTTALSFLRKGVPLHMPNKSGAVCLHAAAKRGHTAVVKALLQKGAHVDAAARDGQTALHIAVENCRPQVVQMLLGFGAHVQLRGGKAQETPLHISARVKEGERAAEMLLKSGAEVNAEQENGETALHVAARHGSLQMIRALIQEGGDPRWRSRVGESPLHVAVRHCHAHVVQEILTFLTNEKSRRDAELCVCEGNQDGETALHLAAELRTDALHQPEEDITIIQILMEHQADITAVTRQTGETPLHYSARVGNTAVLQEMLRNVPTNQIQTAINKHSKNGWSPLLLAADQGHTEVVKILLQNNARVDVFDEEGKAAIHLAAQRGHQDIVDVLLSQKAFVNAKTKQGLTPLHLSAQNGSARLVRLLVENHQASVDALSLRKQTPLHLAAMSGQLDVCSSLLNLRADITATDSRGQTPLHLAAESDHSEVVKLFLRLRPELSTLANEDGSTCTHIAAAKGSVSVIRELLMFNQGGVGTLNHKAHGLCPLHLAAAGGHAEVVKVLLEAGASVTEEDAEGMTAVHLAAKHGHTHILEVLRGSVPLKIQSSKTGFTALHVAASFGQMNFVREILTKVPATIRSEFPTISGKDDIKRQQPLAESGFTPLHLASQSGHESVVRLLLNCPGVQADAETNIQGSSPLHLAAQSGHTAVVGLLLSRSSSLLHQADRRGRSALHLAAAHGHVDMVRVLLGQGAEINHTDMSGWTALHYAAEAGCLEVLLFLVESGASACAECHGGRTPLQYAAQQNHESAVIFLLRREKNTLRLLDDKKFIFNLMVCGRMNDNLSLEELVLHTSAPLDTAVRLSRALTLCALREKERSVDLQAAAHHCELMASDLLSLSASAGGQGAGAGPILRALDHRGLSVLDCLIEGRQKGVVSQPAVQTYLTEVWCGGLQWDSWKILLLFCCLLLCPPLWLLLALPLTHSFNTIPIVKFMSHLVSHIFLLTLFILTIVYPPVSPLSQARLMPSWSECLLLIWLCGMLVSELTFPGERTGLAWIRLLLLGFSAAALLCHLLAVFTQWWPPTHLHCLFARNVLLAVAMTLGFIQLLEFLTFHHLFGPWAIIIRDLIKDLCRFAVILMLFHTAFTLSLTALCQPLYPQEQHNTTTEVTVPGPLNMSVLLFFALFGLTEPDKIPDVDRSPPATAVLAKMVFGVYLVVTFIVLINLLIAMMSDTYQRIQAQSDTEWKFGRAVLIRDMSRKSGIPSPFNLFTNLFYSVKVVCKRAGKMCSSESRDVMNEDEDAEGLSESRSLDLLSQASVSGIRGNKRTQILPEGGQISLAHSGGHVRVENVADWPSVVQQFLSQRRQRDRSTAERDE
Peroxisome proliferator-activated receptor gamma/Nuclear receptor coactivator 3, sequence (P37231 whole entry): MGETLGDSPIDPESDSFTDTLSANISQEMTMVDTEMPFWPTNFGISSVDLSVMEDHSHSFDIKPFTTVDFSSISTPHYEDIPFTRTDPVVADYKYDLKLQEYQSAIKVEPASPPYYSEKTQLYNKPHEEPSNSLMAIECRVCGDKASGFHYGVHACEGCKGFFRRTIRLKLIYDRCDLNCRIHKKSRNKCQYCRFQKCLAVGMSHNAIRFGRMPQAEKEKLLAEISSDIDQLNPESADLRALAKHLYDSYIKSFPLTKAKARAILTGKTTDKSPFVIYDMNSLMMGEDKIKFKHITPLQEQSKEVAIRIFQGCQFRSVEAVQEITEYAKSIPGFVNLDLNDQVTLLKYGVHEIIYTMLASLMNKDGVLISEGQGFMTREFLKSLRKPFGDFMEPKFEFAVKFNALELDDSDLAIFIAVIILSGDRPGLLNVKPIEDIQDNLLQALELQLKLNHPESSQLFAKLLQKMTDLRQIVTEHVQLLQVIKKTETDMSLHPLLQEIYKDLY
Peroxisome proliferator-activated receptor gamma/Nuclear receptor coactivator 3, sequence (Q9Y6Q9 whole entry, further chain): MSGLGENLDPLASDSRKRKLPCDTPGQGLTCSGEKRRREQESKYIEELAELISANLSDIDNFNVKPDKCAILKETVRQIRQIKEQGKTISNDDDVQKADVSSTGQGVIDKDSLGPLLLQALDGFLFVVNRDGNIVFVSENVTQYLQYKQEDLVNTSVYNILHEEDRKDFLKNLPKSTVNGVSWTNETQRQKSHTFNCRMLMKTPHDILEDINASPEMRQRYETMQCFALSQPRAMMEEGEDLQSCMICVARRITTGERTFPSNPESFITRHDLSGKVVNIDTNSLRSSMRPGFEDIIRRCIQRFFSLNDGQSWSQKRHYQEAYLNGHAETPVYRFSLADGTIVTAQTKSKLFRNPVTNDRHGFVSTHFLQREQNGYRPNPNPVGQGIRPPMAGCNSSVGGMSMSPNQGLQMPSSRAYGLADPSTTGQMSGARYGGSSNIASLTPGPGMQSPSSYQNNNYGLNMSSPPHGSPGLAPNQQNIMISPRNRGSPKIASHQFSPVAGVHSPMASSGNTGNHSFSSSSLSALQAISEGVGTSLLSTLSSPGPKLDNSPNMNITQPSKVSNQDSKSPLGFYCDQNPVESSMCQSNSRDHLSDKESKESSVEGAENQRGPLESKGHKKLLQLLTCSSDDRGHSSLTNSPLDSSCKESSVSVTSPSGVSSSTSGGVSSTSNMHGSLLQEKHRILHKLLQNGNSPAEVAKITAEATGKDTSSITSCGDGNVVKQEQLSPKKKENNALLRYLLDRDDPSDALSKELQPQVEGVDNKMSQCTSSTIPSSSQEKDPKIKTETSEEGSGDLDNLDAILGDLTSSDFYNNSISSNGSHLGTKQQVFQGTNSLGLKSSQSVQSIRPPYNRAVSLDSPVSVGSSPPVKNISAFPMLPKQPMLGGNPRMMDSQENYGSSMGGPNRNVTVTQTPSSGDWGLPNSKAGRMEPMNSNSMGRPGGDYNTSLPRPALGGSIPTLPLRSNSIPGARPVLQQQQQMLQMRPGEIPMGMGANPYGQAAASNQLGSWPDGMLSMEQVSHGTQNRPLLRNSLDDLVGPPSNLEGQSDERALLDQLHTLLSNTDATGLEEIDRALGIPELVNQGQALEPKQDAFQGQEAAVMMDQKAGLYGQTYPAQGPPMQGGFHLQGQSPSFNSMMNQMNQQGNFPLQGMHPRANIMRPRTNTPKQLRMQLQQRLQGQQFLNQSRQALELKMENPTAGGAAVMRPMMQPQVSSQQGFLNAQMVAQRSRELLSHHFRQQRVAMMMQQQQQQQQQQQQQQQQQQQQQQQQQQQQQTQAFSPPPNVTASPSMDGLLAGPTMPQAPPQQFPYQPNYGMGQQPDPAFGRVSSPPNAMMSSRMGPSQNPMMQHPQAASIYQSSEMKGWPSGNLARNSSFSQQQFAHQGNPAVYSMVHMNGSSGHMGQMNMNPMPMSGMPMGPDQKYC
Mothers against decapentaplegic homolog 3, sequence (P84022 whole entry): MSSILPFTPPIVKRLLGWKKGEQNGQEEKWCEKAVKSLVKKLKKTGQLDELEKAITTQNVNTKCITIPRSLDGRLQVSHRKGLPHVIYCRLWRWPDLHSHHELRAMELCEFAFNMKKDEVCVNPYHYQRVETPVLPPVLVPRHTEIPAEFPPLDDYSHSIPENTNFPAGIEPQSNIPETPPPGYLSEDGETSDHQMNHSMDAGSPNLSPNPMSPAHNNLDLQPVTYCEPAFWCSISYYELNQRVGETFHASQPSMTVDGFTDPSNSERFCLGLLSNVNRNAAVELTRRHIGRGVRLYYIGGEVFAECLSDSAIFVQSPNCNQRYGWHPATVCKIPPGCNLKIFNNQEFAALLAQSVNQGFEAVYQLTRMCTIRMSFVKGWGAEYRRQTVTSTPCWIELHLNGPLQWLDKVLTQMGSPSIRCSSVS
Mucolipin-3, sequence (Q8TDD5 whole entry): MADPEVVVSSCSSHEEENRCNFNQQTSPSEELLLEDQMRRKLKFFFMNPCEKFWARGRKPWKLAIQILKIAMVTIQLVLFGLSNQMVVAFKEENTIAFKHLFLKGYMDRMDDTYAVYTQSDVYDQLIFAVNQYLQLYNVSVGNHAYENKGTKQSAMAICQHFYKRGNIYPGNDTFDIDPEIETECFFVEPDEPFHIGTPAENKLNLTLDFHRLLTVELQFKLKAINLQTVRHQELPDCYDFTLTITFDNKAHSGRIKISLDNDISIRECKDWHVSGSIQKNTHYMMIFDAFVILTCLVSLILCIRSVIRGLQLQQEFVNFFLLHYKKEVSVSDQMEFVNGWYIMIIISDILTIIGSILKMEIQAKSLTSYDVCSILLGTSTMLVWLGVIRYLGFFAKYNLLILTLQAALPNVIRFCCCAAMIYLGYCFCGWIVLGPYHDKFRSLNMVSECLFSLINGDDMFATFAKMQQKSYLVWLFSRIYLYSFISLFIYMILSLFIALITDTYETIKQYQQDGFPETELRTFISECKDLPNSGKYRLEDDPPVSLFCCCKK

Oc1nc(NN=C(S)NCc2ccccc2)nc2c1C1(CCCCC1)Cc1ccccc1-2
IC50 [1]: 11.8 µM (active)
EC50 [2]: 4.58 µM (active)
AC50 [3]: 3 µM (active)
EC50 [4]: 6.03 µM (active)
IC50 [5]: 35.8 µM (active)
EC50 [6]: > 100 µM (active)
EC50 [7]: 3.33 µM (active)

CCCN1CCCc2cc(CN)ccc21
EC50 [8]: > 30 µM (not active)
EC50 [9]: 13 µM (active)
IC50 [10]: 24.6 µM (active)
EC50 [11]: 0.127 µM (active)
EC50 [12]: 18.5 µM (active)

COc1ccccc1C1Nc2cccc3cccc(c23)N1
IC50 [13]: 35.1 µM (active)
CC50 [14]: > 99 µM (not active)

COc1ccc(N2CCN(C(=O)CCCn3c(=S)[nH]c4ccccc4c3=O)CC2)cc1
IC50 [15]: > 50 µM (not active)

Cc1onc(-c2ccccc2Cl)c1C(=O)Nc1cccc(-c2nc3ncccn3c2C)c1
EC50 [16]: > 29.9 µM (not active)
EC50 [17]: > 29.9 µM (not active)

CCOC(=O)C1CCN(C(=O)CSc2ccccc2Cl)CC1
EC50 [18]: > 79.4 µM (not active)
EC50 [19]: > 79.4 µM (not active)
EC50 [20]: > 79.4 µM (not active)

Cc1cc(C)c2c(O)nc(SCC(=O)c3ccc(C)c(C)c3)nc2n1
IC50 [21]: 27.6 µM (active)

COc1cc(/C=C2\SC(=O)N(CC(=O)Nc3cccc(C)c3)C2=O)cc([N+](=O)[O-])c1O
IC50 [22]: 40.8 µM (active)
IC50 [23]: > 50 µM (active)
